From ChEMBL document CHEMBL1143277, “Submicromolar phosphinic inhibitors of Escherichia coli aspartate transcarbamoylase” (Bioorg Med Chem Lett, 2009)
Calls of active or inactive are those of the source. The rule behind the calls is not given here.

Experiments:
Escherichia coli = experiment: Competitive inhibition of Escherichia coli pEK17/EK1104 ATCase catalytic subunit assessed as formation of N-carbamoyl-L-aspartate by colorimetric assay
[1] = Inhibition of Escherichia coli pEK17/EK1104 ATCase catalytic subunit assessed as formation of N-carbamoyl-L-aspartate by colorimetric assay relative to carbamyl phosphate

| Compound | Activity (Escherichia coli) | Ki [1] |
| --- | --- | --- |
| O=C(O)C[C@H](NC(=O)CP(=O)(O)CO)C(=O)O | Active | 193 nM |
| O=C(O)C[C@H](NC(=O)C[PH](=O)O)C(=O)O | Active | 417 nM |
| O=C(O)C[C@H](NC(=O)CP(=O)(O)O)C(=O)O [PALA] | Active | 16 nM |
